This is an account of results in patent US20080009418A1, “Selective Inhibitors” (Alchemia LTD., priority 2004, published 2008).

Assay [1] has as its target T1, Human Melanocortin (MC4) (Homo sapiens, UniProt P32245).
T1 construct: purchased Perkin Elmer Biosignal
Description: Radioligand binding, human melanocortin MC4 membranes, FlashPlate, [125I]-NDP-αMSH. The following applies: compound at 10 μM; [125I]-NDP-αMSH. The method in brief:
(§1)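 Cloned human receptor membranes were coated onto FlashPlate wells and incubated with radioligand and compound (added from a 0.5 mM DMSO daughter plate) for 1 hour at room temperature in the dark. Scintillation counting gave percent inhibition, with DMSO defining total and reference ligand defining non-specific binding.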

Assay [2] concerns the target T2, Human Melanocortin (MC3) (Homo sapiens, UniProt P41968).
T2 construct: purchased Perkin Elmer Biosignal
In words: Radioligand binding, human melanocortin MC3 membranes, FlashPlate, [125I]-NDP-αMSH. To be noted: compound at 10 μM; [125I]-NDP-αMSH. An outline of the steps: as §1

For assay [3], the target named is T3, Human melanocortin (MC5) (Homo sapiens, UniProt P33032).
T3 construct: purchased Perkin Elmer Biosignal
Description: Radioligand binding, human melanocortin MC5 membranes, FlashPlate, [125I]-NDP-αMSH. The following applies: compound at 10 μM; [125I]-NDP-αMSH. The method in brief:
as §1

In assay [4] the target is T4, Human δ-opioid (DOP) (Homo sapiens, UniProt P41143).
T4 construct: purchased Perkin Elmer Biosignal
In words: Radioligand binding, human δ-opioid (DOP) membranes, FlashPlate, [3H]-Bremazocine. The following applies: compound at 10 μM; [3H]-Bremazocine. The method in brief: as §1

Assay [5] has as its target T5, Human μ-opioid (MOP) (Homo sapiens, UniProt P35372).
T5 construct: purchased Perkin Elmer Biosignal
Description: Radioligand binding, human μ-opioid (MOP) membranes, FlashPlate, [3H]-Naloxone. To be noted: compound at 10 μM; [3H]-Naloxone. The method in brief:
as §1

The target of assay [6] is T6, Mouse urotensin (mUR2) (Mus musculus, UniProt Q8VIH9).
T6 construct: purchased Perkin Elmer Biosignal
T6 sequence (Q8VIH9 1-385): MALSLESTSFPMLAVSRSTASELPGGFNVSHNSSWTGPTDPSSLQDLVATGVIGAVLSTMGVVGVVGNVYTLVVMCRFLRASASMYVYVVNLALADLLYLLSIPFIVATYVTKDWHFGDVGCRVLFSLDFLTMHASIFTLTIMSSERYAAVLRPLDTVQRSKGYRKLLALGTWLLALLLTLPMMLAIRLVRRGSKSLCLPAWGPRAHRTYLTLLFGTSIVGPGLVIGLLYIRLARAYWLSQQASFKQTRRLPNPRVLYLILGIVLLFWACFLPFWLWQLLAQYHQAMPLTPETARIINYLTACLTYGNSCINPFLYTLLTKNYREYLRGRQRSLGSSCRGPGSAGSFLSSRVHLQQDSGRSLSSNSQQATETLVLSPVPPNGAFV
In words: Radioligand binding, mouse urotensin mUR2 membranes, FlashPlate, [125I]-Urotensin II. To be noted: compound at 10 μM; [125I]-Urotensin II. The method in brief: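 Cloned mouse urotensin (mUR2) receptor membranes from Perkin Elmer Biosignal were immobilized in FlashPlate microplates using a proprietary coating. Each well got 19.5 μl buffer, then 0.5 μl of DMSO, reference ligand, or compound. Adding 5 μl of [125I]-Urotensin II, diluted to 5× final concentration in binding buffer, started binding. Plates were sealed with TopSeal-A and incubated 1 hour at room temperature in the dark. Wells were counted for 30 seconds each on a TopCount after a 60-second delay, and percentage inhibition was calculated.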

For assay [7], the target named is T7, Human neuropeptide Y (NPY-Y1) (Homo sapiens, UniProt P25929).
T7 construct: purchased Perkin Elmer Biosignal
T7 sequence (P25929 1-384): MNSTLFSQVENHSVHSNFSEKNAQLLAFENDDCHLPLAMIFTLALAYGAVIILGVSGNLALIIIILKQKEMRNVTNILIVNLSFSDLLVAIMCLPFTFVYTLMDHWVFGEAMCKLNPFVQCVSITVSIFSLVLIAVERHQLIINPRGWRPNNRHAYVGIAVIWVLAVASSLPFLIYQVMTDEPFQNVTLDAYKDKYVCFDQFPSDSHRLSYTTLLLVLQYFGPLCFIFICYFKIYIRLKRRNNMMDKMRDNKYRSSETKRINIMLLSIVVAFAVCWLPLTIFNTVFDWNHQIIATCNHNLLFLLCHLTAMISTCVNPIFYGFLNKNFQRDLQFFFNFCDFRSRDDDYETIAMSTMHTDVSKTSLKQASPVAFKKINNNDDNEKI
In words: Radioligand binding, human neuropeptide Y NPY-Y1 membranes, FlashPlate, [125I]-PYY. The following applies: compound at 10 μM; [125I]-PYY. An outline of the steps:
as §1

Assay [8] deals with T8, Human neurokinin (NK1) (Homo sapiens, UniProt P25103).
T8 construct: purchased Perkin Elmer Biosignal
In words: Radioligand binding, human neurokinin NK1 membranes, filtration, [125I]-Substance P. To be noted: compound at 10 μM; [125I]-Substance P. An outline of the steps:
(§2)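 Percent inhibition of radioligand binding measured on recombinant human membranes: NK1 with [125I]-Substance P, KOP with [3H]-Diprenorphine. Incubation 1 h at room temperature, then harvest onto 0.3% PEI-soaked filters, cold Tris-HCl pH 7.4 washes and scintillation counting; non-specific binding from reference ligand wells.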

For assay [9], the target named is T9, Human melanin-concentrating hormone (MCH1) (Homo sapiens, UniProt Q99705).
T9 construct: purchased Perkin Elmer Biosignal
In words: Radioligand binding, human melanin-concentrating hormone MCH1 membranes, FlashPlate, [125I]-S36057. To be noted: compound at 10 μM; [125I]-S36057. An outline of the steps: as §1

Assay [10] has as its target T10, Human opioid (ORL1) (Homo sapiens, UniProt P41146).
T10 construct: purchased Perkin Elmer Biosignal
In words: Radioligand binding, human opioid ORL1 membranes, FlashPlate, [125I]-Nociceptin. To be noted: compound at 10 μM; [125I]-Nociceptin. The method in brief: as §1

Assay [11] deals with T11, Human κ-Opioid (KOP) (Homo sapiens, UniProt P41145).
T11 construct: purchased Perkin Elmer Biosignal
Description: Radioligand binding, human κ-opioid (KOP) membranes, filtration, [3H]-Diprenorphine. The following applies: compound at 10 μM; [3H]-Diprenorphine. The method in brief: as §2

The structures appear in SMILES notation.

T9 sequence (Q99705 whole entry): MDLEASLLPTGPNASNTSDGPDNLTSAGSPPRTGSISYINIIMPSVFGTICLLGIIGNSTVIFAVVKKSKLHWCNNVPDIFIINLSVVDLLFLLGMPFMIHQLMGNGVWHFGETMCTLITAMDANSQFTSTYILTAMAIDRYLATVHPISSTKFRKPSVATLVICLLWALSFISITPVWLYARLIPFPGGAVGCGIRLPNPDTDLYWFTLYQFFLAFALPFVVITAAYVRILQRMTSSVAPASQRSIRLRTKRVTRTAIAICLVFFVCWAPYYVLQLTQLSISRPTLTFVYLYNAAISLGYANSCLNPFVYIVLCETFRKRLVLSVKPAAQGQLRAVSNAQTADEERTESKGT
T10 sequence (P41146 whole entry): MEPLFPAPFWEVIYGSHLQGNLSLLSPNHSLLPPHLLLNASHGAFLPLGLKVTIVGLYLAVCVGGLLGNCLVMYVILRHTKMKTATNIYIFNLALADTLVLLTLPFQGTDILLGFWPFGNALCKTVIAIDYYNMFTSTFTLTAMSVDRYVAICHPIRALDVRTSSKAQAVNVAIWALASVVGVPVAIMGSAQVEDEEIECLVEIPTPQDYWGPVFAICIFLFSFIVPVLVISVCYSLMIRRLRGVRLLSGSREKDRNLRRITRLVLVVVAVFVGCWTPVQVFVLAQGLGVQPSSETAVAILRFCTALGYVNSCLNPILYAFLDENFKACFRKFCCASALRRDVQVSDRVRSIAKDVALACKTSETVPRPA
T1 sequence (P32245 whole entry): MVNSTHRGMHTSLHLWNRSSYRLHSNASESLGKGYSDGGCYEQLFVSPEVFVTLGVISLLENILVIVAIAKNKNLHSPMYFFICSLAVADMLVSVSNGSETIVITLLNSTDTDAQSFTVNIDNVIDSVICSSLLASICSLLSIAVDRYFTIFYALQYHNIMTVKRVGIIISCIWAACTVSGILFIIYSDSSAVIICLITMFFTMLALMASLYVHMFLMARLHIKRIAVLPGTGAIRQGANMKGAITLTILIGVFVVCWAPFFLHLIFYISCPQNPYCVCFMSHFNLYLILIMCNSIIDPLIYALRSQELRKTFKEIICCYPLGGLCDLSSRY
T11 sequence (P41145 whole entry): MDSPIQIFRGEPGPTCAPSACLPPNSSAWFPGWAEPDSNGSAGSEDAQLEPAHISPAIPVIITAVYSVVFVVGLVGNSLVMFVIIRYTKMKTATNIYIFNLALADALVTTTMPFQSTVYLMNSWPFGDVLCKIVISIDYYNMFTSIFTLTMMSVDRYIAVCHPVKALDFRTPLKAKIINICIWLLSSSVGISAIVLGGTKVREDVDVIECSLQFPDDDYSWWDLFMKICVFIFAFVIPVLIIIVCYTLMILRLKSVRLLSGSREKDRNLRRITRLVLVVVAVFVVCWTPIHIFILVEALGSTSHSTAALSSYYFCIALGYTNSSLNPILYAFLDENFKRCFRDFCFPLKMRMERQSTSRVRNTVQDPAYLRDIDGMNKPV
T4 sequence (P41143 whole entry): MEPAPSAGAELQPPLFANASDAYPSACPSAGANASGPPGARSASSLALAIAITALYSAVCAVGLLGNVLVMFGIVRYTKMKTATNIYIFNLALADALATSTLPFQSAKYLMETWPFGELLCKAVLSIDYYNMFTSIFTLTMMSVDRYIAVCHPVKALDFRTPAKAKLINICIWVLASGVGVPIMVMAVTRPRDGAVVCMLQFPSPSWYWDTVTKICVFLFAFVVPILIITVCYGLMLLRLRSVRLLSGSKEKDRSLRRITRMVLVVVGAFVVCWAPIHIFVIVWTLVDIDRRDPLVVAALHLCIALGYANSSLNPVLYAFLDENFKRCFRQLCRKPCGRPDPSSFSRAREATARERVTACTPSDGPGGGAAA
T2 sequence (P41968 whole entry): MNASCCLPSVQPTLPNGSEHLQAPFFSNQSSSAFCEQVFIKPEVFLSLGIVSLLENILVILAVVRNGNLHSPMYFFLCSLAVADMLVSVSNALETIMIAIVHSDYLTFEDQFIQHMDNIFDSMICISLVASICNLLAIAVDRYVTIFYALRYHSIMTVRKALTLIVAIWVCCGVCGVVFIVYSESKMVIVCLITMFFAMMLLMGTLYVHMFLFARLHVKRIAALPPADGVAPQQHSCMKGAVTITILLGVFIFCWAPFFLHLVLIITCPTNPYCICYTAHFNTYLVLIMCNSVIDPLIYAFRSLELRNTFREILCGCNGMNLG
T5 sequence (P35372 whole entry): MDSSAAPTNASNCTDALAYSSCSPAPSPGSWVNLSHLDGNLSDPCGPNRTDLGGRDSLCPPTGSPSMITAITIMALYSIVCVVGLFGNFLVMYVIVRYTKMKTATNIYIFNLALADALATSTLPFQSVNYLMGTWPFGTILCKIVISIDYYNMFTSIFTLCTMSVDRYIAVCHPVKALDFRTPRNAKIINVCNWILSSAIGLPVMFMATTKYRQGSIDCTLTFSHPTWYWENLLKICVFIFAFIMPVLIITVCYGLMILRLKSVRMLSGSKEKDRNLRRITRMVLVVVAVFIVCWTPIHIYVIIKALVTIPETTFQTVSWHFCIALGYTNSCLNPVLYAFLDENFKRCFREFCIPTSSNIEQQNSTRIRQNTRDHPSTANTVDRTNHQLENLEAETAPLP
T8 sequence (P25103 whole entry): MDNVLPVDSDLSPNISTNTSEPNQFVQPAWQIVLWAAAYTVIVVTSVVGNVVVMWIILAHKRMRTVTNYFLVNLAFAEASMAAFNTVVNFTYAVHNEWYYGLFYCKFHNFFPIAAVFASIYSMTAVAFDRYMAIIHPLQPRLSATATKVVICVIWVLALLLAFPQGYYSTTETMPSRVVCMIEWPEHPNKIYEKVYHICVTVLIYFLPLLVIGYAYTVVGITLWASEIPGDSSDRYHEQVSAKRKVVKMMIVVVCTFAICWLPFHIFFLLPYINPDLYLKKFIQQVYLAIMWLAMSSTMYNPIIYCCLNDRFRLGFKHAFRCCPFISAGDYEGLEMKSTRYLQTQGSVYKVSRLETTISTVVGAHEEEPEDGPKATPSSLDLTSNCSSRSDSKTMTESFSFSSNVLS
T3 sequence (P33032 whole entry): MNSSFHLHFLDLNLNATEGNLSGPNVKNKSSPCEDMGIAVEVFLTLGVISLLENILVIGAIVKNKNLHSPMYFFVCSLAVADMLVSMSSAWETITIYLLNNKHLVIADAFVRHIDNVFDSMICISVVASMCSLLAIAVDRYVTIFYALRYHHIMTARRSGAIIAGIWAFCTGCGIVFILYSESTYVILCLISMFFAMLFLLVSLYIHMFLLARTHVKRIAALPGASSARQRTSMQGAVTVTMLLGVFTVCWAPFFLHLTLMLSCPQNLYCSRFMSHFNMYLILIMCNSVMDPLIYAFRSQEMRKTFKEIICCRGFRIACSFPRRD

Regarding `COCC1OC(OCc2ccccc2)C(NC(=O)CCN)C(OCc2ccc(-c3ccccc3)cc2)C1O` (stereo not drawn) [compound 184], the “A4 radioligand binding, percentage inhibition” value in assay [1] is reported as “− (“−” indicates less than 50% inhibition at 10 μM)”. The “A3 radioligand binding, percentage inhibition” value in [2] is given as “− (“−” indicates less than 50% inhibition at 10 μM)”. Further, the “A5 radioligand binding, percentage inhibition” value in [3] is reported as “+ (“+” indicates greater than 50% inhibition at 10 μM)”. The “A1 radioligand binding, percentage inhibition” value in [4] was “− (“−” indicates less than 50% inhibition at 10 μM)”. The “A7 radioligand binding, percentage inhibition” value in assay [5] is “− (“−” indicates less than 50% inhibition at 10 μM)”. In assay [6], the “A11 radioligand binding, percentage inhibition” value is “− (“−” indicates less than 50% inhibition at 10 μM)”. Further, the “A9 radioligand binding, percentage inhibition” value in assay [7] is on record as “− (“−” indicates less than 50% inhibition at 10 μM)”. Besides, in assay [8], the “A8 radioligand binding, percentage inhibition” value is “+ (“+” indicates greater than 50% inhibition at 10 μM)”. In assay [9], the “A6 radioligand binding, percentage inhibition” value is reported as “− (“−” indicates less than 50% inhibition at 10 μM)”. Besides, the “A10 radioligand binding, percentage inhibition” value in assay [10] is on record as “− (“−” indicates less than 50% inhibition at 10 μM)”. Moreover, the “A2 radioligand binding, percentage inhibition” value in [11] is listed as “− (“−” indicates less than 50% inhibition at 10 μM)”.

`COCC1OC(OCc2ccccc2)C(NC(=O)CCNC(=N)N)C(OCc2ccc(-c3ccccc3)cc2)C1O` (stereo not drawn) [compound 185]: in [1], the “A4 radioligand binding, percentage inhibition” value is “+ (“+” indicates greater than 50% inhibition at 10 μM)”. For the same molecule, the “A3 radioligand binding, percentage inhibition” value in assay [2] is recorded as “− (“−” indicates less than 50% inhibition at 10 μM)”. The “A5 radioligand binding, percentage inhibition” value in assay [3] is recorded as “+ (“+” indicates greater than 50% inhibition at 10 μM)”. Moreover, the “A1 radioligand binding, percentage inhibition” value in assay [4] was “− (“−” indicates less than 50% inhibition at 10 μM)”. For the same molecule, the “A7 radioligand binding, percentage inhibition” value in assay [5] was “− (“−” indicates less than 50% inhibition at 10 μM)”. The “A11 radioligand binding, percentage inhibition” value in assay [6] was “− (“−” indicates less than 50% inhibition at 10 μM)”. The “A9 radioligand binding, percentage inhibition” value in assay [7] was “− (“−” indicates less than 50% inhibition at 10 μM)”. For the same molecule, the “A8 radioligand binding, percentage inhibition” value in assay [8] is on record as “+ (“+” indicates greater than 50% inhibition at 10 μM)”. The “A6 radioligand binding, percentage inhibition” value in assay [9] is given as “+ (“+” indicates greater than 50% inhibition at 10 μM)”. In assay [10], the “A10 radioligand binding, percentage inhibition” value is reported as “− (“−” indicates less than 50% inhibition at 10 μM)”. Besides, the “A2 radioligand binding, percentage inhibition” value in assay [11] is “− (“−” indicates less than 50% inhibition at 10 μM)”.

Consider `COCC1OC(OCc2ccccc2)C(NC(=O)CCCN)C(OCc2ccc(-c3ccccc3)cc2)C1O` (stereo not drawn) [compound 186], for which, in [1], the “A4 radioligand binding, percentage inhibition” value is on record as “− (“−” indicates less than 50% inhibition at 10 μM)”. The “A3 radioligand binding, percentage inhibition” value in [2] is given as “− (“−” indicates less than 50% inhibition at 10 μM)”. In addition, the “A5 radioligand binding, percentage inhibition” value in [3] is “+ (“+” indicates greater than 50% inhibition at 10 μM)”. Moreover, the “A1 radioligand binding, percentage inhibition” value in assay [4] is on record as “− (“−” indicates less than 50% inhibition at 10 μM)”. Further, in assay [5], the “A7 radioligand binding, percentage inhibition” value was “− (“−” indicates less than 50% inhibition at 10 μM)”. In addition, the “A11 radioligand binding, percentage inhibition” value in [6] was “− (“−” indicates less than 50% inhibition at 10 μM)”. For the same molecule, the “A9 radioligand binding, percentage inhibition” value in assay [7] is on record as “− (“−” indicates less than 50% inhibition at 10 μM)”. Besides, the “A8 radioligand binding, percentage inhibition” value in assay [8] is “+ (“+” indicates greater than 50% inhibition at 10 μM)”. The “A6 radioligand binding, percentage inhibition” value in assay [9] is given as “− (“−” indicates less than 50% inhibition at 10 μM)”. In addition, in assay [10], the “A10 radioligand binding, percentage inhibition” value is “− (“−” indicates less than 50% inhibition at 10 μM)”. Further, the “A2 radioligand binding, percentage inhibition” value in [11] is recorded as “− (“−” indicates less than 50% inhibition at 10 μM)”.
